According to patent publication US20230041563A1, “N-(1,3,4-OXADIAZOL-2-YL)ARYLCARBOXAMIDES OR SALTS THEREOF, PREPARATION METHODS, HERBICIDAL COMPOSITIONS AND USES THEREOF” (priority 2018, published 2023):

Legend:
[1] = system: Digitaria sanguinalis; assay: Weeding effect in post-emergence stage (greenhouse pot spray); type: in vivo
Outline: (§1)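 Greenhouse pot plants at the 2–3 leaf stage (2 weeks after sowing) were sprayed with compound in acetone with Tween 80 and methyl oleate EC synergist (1.5 L/ha) at 500, 250, 125, 60 or 15 g a.i./ha. Fresh-weight growth control was scored 3 weeks later, averaged over three replicates.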

[2] = system: Echinochloa crusgalli; assay: as above; type: in vivo
Outline: as §1

[3] = system: Setaria viridis; assay: as above; type: in vivo
Outline: as §1

[4] = system: Abutilon theophrasti; assay: Post-emergence control experiment of R configuration compound activity (weeds 4-5 leaf stage, 25 days); type: in vivo; settings: Abutilon theophrasti, post-emergence; read-out: Ablation theophrasti (30 g a.i./ha) inhibition rate
Description: (§2) Experiment on weeding effect in post-emergence stage: after 3-4 weeks of sowing, the test plants were treated in the 1.5-2 leaf stage of the directly sowed rice Longyang 16, and the 4-5 leaf stage of weeds. After the application of the compounds of the present invention, the plants were cultured for 25 days in the greenhouse, and then the experimental results of the weeding were counted.

[5] = system: Digitaria sanguinalis; assay: as above; type: in vivo; settings: Digitaria sanguinalis, post-emergence; read-out: Digitaria sanguinalis (30 g a.i./ha) inhibition rate
Description: as §2

[6] = system: Green Setaria viridis; assay: as above; type: in vivo; settings: Setaria viridis, post-emergence; for inhibition at 30 g/ha: read-out: Green Setaria viridis (30 g a.i./ha) inhibition rate; for inhibition at 60 g/ha: read-out: Green Setaria viridis (60 g a.i./ha) inhibition rate
Description: as §2

[7] = system: Leptochloa chinensis; assay: as above; type: in vivo; settings: for inhibition at 60 g/ha / inhibition at 125 g/ha: Dinebra chinensis, post-emergence; for inhibition at 60 g/ha: read-out: Leptochloa chinensis (60 g a.i./ha) inhibition rate; for inhibition at 125 g/ha: read-out: Leptochloa chinensis (125 g a.i./ha) inhibition rate
Description: as §2

[8] = system: Rice (Longyang 16); assay: Post-emergence control experiment of R configuration compound activity (directly sowed rice 1.5-2 leaf stage, 25 days); type: in vivo
Description: as §2
Longyang 16 is a representative and important long-grain fragrant rice in Northeast China. Long-grain fragrant rice is more sensitive to herbicides, especially to HPPD herbicides such as Mesotrione, Benzobicylon and the like, which are prone to causing phytotoxicity.

[9] = system: Echinochloa crusgali; assay: Transplanted rice safety evaluation and weed control effect evaluation in rice field; type: in vivo
Outline: (§3)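 Paddy-soil pots, seeds sown and flooded (0.5-1 cm, then 3-4 cm water); Sagittaria grown from tubers. WP or SC dilutions dripped on at 0.5-leaf stage (Sagittaria at primary leaf). Visual 0-5 scoring of weeds at 14 days, rice at 21 days.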

[10] = system: Leptochloa chinensis; assay: as above; type: in vivo; settings: Table 8, dose 60 g a.i./ha
Outline: as §3

[11] = system: Monochoria vaginalis; assay: as above; type: in vivo
Outline: as §3

[12] = system: Sagittaria trifolia; assay: as above; type: in vivo; settings: Table 8, dose 60 g a.i./ha
Outline: as §3

[13] = system: Rice; assay: as above; type: in vivo, rice (japonica rice/Indica rice)
Outline: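 Japonica and Indica rice at 3-leaf stage transplanted into flooded paddy soil (3-4 cm water). Compound applied 5 days after transplanting. Weeds scored visually on 0-5 scale at 14 days; rice injury at 21 days.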

[14] = system: Abutilon theophrasti; assay: Weeding effect in post-emergence stage (greenhouse pot spray); type: in vivo
Outline: as §1

[15] = system: Amaranthus retroflexus; assay: as above; type: in vivo
Outline: as §1

[16] = system: Stellaria media; assay: as above; type: in vivo
Outline: as §1

[17] = system: Indica rice (Huanghuazhan); assay: Safety test of control experiments on rice; type: in vivo; settings: Dose 250 g a.i./ha
Excerpt: (§4) The activity level criteria for plant damage (i.e., growth control rate) are as follows: Comparative Experiments: [table]

[18] = system: Japonica rice (Huaidao No. 5); assay: Safety test of control experiments on rice; type: in vivo; settings: Dose 250 g a.i./ha
Excerpt: as §4

[19] = system: rice and Echinochloa crusgali; assay: Herbicide selection index between rice and Echinochloa crusgali; type: in vivo; settings: average dose causing 10% phytotoxicity to rice divided by average dose causing 90% control efficiency to Echinochloa crusgali
[20] = system: Scirpus juncoides; assay: Transplanted rice safety evaluation and weed control effect evaluation in rice field; type: in vivo; settings: Table 7, dose 125 g a.i./ha, 14 days after treatment
Outline: as §3

[21] = system: gramineous weed (Echinochloa crusgali, Leptochloa chinensis or Digitaria sanguinalis); assay: Post-emergence activity on gramineous weed, comparison between compounds; type: in vivo; settings: at low doses; versus Compound 1-2
Excerpt: Experiment on weeding effect in post-emergence stage: monocotyledonous and dicotyledonous weed seeds (Descurainia sophia, Capsella bursa-pastoris, Abutilon theophrasti, Galium aparine, Stellaria media, Lithospermum arvense, rorippa indica, Alopecurus aequalis, Beckmannia syzigachne, Sclerochloa dura, Phleum paniculatum, Bromus japonicus, Aegilops tauschii, Phalaris arundinacea, Amaranthus retroflexus, Chenopodiaceae, Commelina communis, Sonchus arvensis, convolvulus arvensis, Cirsium setosum, Solanum nigrum, Acalypha australis, Digitaria sanguinalis, Echinochloa crusgalli, Setaria viridis, Setaria glauca, Leptochloa chinensis, Monochoria vaginalis, Sagittaria trifolia, Scirpus juncoides, Cyperus rotundus, Cyperus iria, Cyperus difformis, Fimbristylis, Portulaca oleracea, Xanthium sibiricum, Pharbitis nil) and major crop seeds (wheat, corn, rice, soybean, cotton, oilseed rape, millet, sorghum, potato, sesame, ricinus) were placed in plastic pots filled with soil, then covered with 0.5-2 cm of soil, allowed to grow in a good greenhouse environment. After 2 weeks of sowing, the test plants were treated in the 2 to 3 leaf stage. […] After the application, the plants were cultured for 3 weeks in the greenhouse, and then the experimental results of the weeding were counted. […]

[22] = Table 7, dose 125 g a.i./ha, 14 days after treatment

## CCC[S@@+]([O-])c1c(C(F)(F)F)ccc(C(=O)Nc2nnc(C)o2)c1F [1-8 (R-configuration)]
[1]; Table 3, dose 3.75 g a.i./ha
  Digitaria sanguinahs (activity level): 4 (Level 4: growth control rate is greater than or equal to 60% and less than 85%)
[1]; Table 3, dose 7.5 g a.i./ha
  Digitaria sanguinahs (activity level): 5 (Level 5: growth control rate is above 85%)
[1]; Table 3, dose 15 g a.i./ha
  Digitaria sanguinahs (activity level): 5 (Level 5: growth control rate is above 85%)
[1]; Table 3, dose 30 g a.i./ha
  Digitaria sanguinahs (activity level): 5 (Level 5: growth control rate is above 85%)
[1]; Table 3, dose 60 g a.i./ha
  Digitaria sanguinahs (activity level): 5 (Level 5: growth control rate is above 85%)
[2]; Table 3, dose 3.75 g a.i./ha
  Echinochloa crusgali (activity level): 5 (Level 5: growth control rate is above 85%)
[2]; Table 3, dose 7.5 g a.i./ha
  Echinochloa crusgali (activity level): 5 (Level 5: growth control rate is above 85%)
[2]; Table 3, dose 15 g a.i./ha
  Echinochloa crusgali (activity level): 5 (Level 5: growth control rate is above 85%)
[2]; Table 3, dose 30 g a.i./ha
  Echinochloa crusgali (activity level): 5 (Level 5: growth control rate is above 85%)
[2]; Table 3, dose 60 g a.i./ha
  Echinochloa crusgali (activity level): 5 (Level 5: growth control rate is above 85%)
[3]; Table 3, dose 3.75 g a.i./ha
  Setaria viridis (activity level): 2 (Level 2: growth control rate is greater than or equal to 20% and less than 40%)
[3]; Table 3, dose 7.5 g a.i./ha
  Setaria viridis (activity level): 4 (Level 4: growth control rate is greater than or equal to 60% and less than 85%)
[3]; Table 3, dose 15 g a.i./ha
  Setaria viridis (activity level): 5 (Level 5: growth control rate is above 85%)
[3]; Table 3, dose 30 g a.i./ha
  Setaria viridis (activity level): 5 (Level 5: growth control rate is above 85%)
[3]; Table 3, dose 60 g a.i./ha
  Setaria viridis (activity level): 5 (Level 5: growth control rate is above 85%)
[4]
  inhibition at 30 g/ha: 100%
[5]
  inhibition at 30 g/ha: 100%
[6]
  inhibition at 30 g/ha: 75%
  inhibition at 60 g/ha: 100%
[7]
  inhibition at 60 g/ha: 85%
  inhibition at 125 g/ha: 100%
[7]; in vivo
  activity against key weed Leptochloa chinensis / key weeds, in words: better activity
[8]
  Rice (Longyang 16) (250 g a.i./ha) inhibition rate: 0%
  Rice (Longyang 16) (500 g a.i./ha) inhibition rate: 0%
[8]; in vivo
  safety on rice (Longyang 16), in words: high safety
[9]; Table 8, dose 60 g a.i./ha
  Echinochloa crusgali (activity level): 5 (Level 5: growth control rate is above 85%)
[10]
  Leptochloa chinensis (activity level): 5 (Level 5: growth control rate is above 85%)
[11]; Table 8, dose 60 g a.i./ha
  Monochoria vaginalis (activity level): 5 (Level 5: growth control rate is above 85%)
[12]
  Sagittaria trifolia (activity level): 5 (Level 5: growth control rate is above 85%)
[13]; Table 8, dose 60 g a.i./ha
  Rice (safety level): 0 (Level 0: growth control rate is less than 5%)

## CCC[S+]([O-])c1c(C(F)(F)F)ccc(C(=O)Nc2nnc(C)o2)c1F (stereo not drawn) [Compound 1-8]
[14]; Table 2, dose 60 g a.i./ha
  Abutilion theophrasti (activity level): 5 (Level 5: growth control rate is above 85%)
[14]; Table 2, dose 125 g a.i./ha
  Abutilion theophrasti (activity level): 5 (Level 5: growth control rate is above 85%)
[14]; Table 3, dose 60 g a.i./ha
  Abutilon theophrasti (activity level): 5 (Level 5: growth control rate is above 85%)
[1]; Table 2, dose 60 g a.i./ha
  Digitaria sanguinalis (activity level): 5 (Level 5: growth control rate is above 85%)
[1]; Table 2, dose 125 g a.i./ha
  Digitaria sanguinalis (activity level): 5 (Level 5: growth control rate is above 85%)
[1]; Table 3, dose 60 g a.i./ha
  Digitaria sanguinahs (activity level): 5 (Level 5: growth control rate is above 85%)
[2]; Table 2, dose 60 g a.i./ha
  Echinochloa crusgah (activity level): 5 (Level 5: growth control rate is above 85%)
[2]; Table 2, dose 125 g a.i./ha
  Echinochloa crusgah (activity level): 5 (Level 5: growth control rate is above 85%)
[2]; Table 3, dose 60 g a.i./ha
  Echinochloa crusgali (activity level): 5 (Level 5: growth control rate is above 85%)
[3]; Table 3, dose 60 g a.i./ha
  Setaria viridis (activity level): 5 (Level 5: growth control rate is above 85%)
[15]; Table 2, dose 60 g a.i./ha
  Amaranthus retroflexus (activity level): 5 (Level 5: growth control rate is above 85%)
[15]; Table 2, dose 125 g a.i./ha
  Amaranthus retroflexus (activity level): 5 (Level 5: growth control rate is above 85%)
[16]; Table 2, dose 60 g a.i./ha
  Stellaria media (activity level): 5 (Level 5: growth control rate is above 85%)
[16]; Table 2, dose 125 g a.i./ha
  Stellaria media (activity level): 5 (Level 5: growth control rate is above 85%)
[17]
  Indica rice (Huanghuazhan) (plant damage level): 0 (Level 0: growth control rate is less than 5%)
[18]
  Japonica rice (Huaidao No. 5) (plant damage level): 0 (Level 0: growth control rate is less than 5%)
[19]
  Selection index between rice and Echinochloa crusgali: >5
[4]
  inhibition at 30 g/ha: 90%
[5]
  inhibition at 30 g/ha: 80%
[6]
  inhibition at 30 g/ha: 10%
  inhibition at 60 g/ha: 90%
[7]
  inhibition at 60 g/ha: 30%
  inhibition at 125 g/ha: 80%
[8]
  Rice (Longyang 16) (250 g a.i./ha) inhibition rate: 5%
  Rice (Longyang 16) (500 g a.i./ha) inhibition rate: 15%
[9]; [22]
  Echinochloa crusgali (activity level): 5 (Level 5: growth control rate is above 85%)
[11]; [22]
  Monochoria vaginalis (activity level): 5 (Level 5: growth control rate is above 85%)
[20]
  Scirpus juncoides (activity level): 5 (Level 5: growth control rate is above 85%)
[13]; Table 7, dose 125 g a.i./ha, 21 days after treatment
  Rice (safety level): 0 (Level 0: growth control rate is less than 5%)
[21]
  activity on the gramineous weed relative to Compound 1-2: much more higher
